The values below are quoted from earlier work in US20030003013A1, “Disinfectant composition and method for disinfecting and/or sterilising a dental unit” ([…].p.A., priority 2001, published 2003).

In this series the test system is bacteria and spores on a surface / water line of a dental unit.

On to `O=CCCCC=O` [glutaraldehyde], for which, for the setting “glutaraldehyde”, the “contact time to reach the sporicidal level required to achieve sterility” value was “five”. In addition, the “contact time for high-level disinfection” value (glutaraldehyde left in contact with a surface before flushing out) is “twenty to thirty”. Further, the “contact time to disinfect a surface” value (glutaraldehyde left in contact with the surface before flushing out) is “approximately five”.
